Data reported in patent US12297175B2, “Physics-driven discovery of novel small therapeutic compounds for use as a BCL-2 inhibitor” (BAHCESEHIR UNIVERSITESI, priority 2020, dated 2025).

Test system: HCT-116 cell lines
Assay: MTT cell proliferation assay
Type: cell-based
Method: For cell culture experiments various cancer cell lines, HCT-116 colon cancer, U87-MG glial tumor, MCF7 breast cancer cell lines were used. Cells were seeded with high glucose DMEM medium (Biosera) supplemented with 10% FBS (Gibco) and 1× penicillin/streptomycin (Multicell). Twenty-four hours prior to molecule treatment, 10,000 cells were seeded into each well of 24-well cell culture plates. Molecules were used by preparing 4 mM stock solution in DMSO (Amresco). For molecule treatment, molecule stock solutions were diluted in DMEM with 10% FBS and added onto cells in each corresponding well. Final concentration of vehicle DMSO was 2% at maximum. […] We calculated the number of cells to be seeded to make sure that none of the cells reaches more than 60% confluency during the treatment period, as higher plate confluency levels would slow down cell proliferation independently from the molecule treatment.
Values of half-maximal inhibitory concentration were (IC50) determined by MTT cell proliferation assays. […] 570 nm absorbance values were recorded and IC50 values were calculated by dose response—inhibition curves and nonlinear regression analysis on GraphPad Prism 8 software. […] Following the initial incubation day, molecules were added and after incubation with MTT at 37° C. for 4 hours, formazan was solubilized with DMSO (Sigma-Aldrich, St. Louis, USA) and absorbance was measured at 570 nm. […]

Cc1ccc(C2CC(=O)N=C(SCC(=O)Nc3ccc(Br)cc3Cl)C2C#N)cc1 (centres unmarked) [compound of formula I]
cell proliferation compared with vehicle group (FIG. 1) (HCT-116 cells, cell viability over time vs vehicle (max 2% DMSO)): reduced proliferation and apoptotic cell structures | IC50 (Homo sapiens, 72 h, HCT-116 colon cancer cells, single treatment, three days results, 570 nm absorbance, read-out: IC50 value (half-maximal inhibitory concentration)): 24 µM
